According to US20110245280A1, “FRUGICIDAL MIXTURES BASED ON TRIAZOLES” (BASF AKTIENGESELLSCHAFT, priority 2002, published 2011):

Tested on: mildew of wheat (Erysiphe [syn. Blumeria] graminis form a specialis tritici)
Experiment: Activity against mildew of wheat, protective spray on potted wheat seedlings (cultivar Kanzler), greenhouse
Format: in vivo
Settings: wheat leaves, 7 days after inoculation
Experimental: The active compounds, separately or together, were formulated as a 10% emulsion in a mixture of 63% by weight of cyclohexanone and 27% by weight of emulsifier, and diluted with water to the desired concentration.
Evaluation was carried out by determining the infected leaf areas in percent. These percentages were converted into efficacies. The efficacy (W) was calculated as follows using Abbot's formula:
[formula] • α corresponds to the fungal infection of the treated plants in % and • β corresponds to the fungal infection of the untreated (control) plants in %
An efficacy of 0 means that the infection level of the treated plants corresponds to that of the untreated control plants; an efficacy of 100 means that the treated plants were not infected.
The expected efficacies of the mixtures of the active compounds were determined using Colby's formula [R. S. Colby, Weeds 15, 20-22 (1967)] and compared with the observed efficacies.
Colby's formula: E=x+y−x·y/100 • E expected efficacy, expressed in % of the untreated control, when using the mixture of the active compounds A and B at the concentrations a and b • x efficacy, expressed in % of the untreated control, when using active compound A at a concentration of a • y efficacy, expressed in % of the untreated control, when using active compound B at a concentration of b.
Leaves of wheat seedlings of the cultivar “Kanzler” grown in pots were sprayed to run-off point with an aqueous suspension having the concentration of active compounds stated below. The suspension or emulsion was prepared from a stock solution made using 10% of active compound in a mixture comprising 70% of cyclohexanone, 20% of wetting agent and 10% of emulsifier. 24 hours after the spraycoating had dried on, the leaves dusted with spores of mildew of wheat (Erysiphe [syn. Blumeria] graminis form a specialis tritici). The test plants were then placed in a greenhouse at 20-24° C. and 60-90% relative atmospheric humidity.
After 7 days, the extent of the development of the mildew was determined visually in % infection of the entire leaf area.
The visually determined values for the percentage of diseased leaf area were converted into efficacies in % of the untreated control. An efficacy of 0 means the same disease level as in the untreated control, an efficacy of 100 means a disease level of 0%. The expected efficacies for the active compound combinations were determined using Colby's formula mentioned above and compared with the observed efficacies.

[1] = 0.06 ppm active compound in the spray liquor
[2] = 0.25 ppm active compound in the spray liquor
[3] = 1 ppm active compound in the spray liquor
[4] = 4 ppm active compound in the spray liquor

Row | Compound | Efficacy in % of the untreated control (0.015 ppm active compound in the spray liquor) [%] | Efficacy in % of the untreated control [1] [%] | Efficacy in % of the untreated control [2] [%] | Efficacy in % of the untreated control [3] [%] | Efficacy in % of the untreated control [4] [%]
1 | OC(Cc1ccccc1Cl)(Cn1nc[nH]c1=S)C1(Cl)CC1 (stereo not drawn) [Compound I, 2-[2-(1-chlorocyclopropyl)-3-(2-chlorophenyl)-2-hydroxypropyl]-2,4-dihydro-[1,2,4]-triazole-3-thione] | 0 | 0 | 0 | 0 | 56
2 | Fc1ccc(C2(Cn3cncn3)OC2c2ccccc2Cl)cc1 (stereo not drawn) [Compound II, epoxiconazole] | – | 11 | 33 | 44 | –
3 | CC1(C)CCC(Cc2ccc(Cl)cc2)C1(O)Cn1cncn1 (stereo not drawn) [Compound III, metconazole] | – | – | 11 | – | –
4 | CCCCC(C#N)(Cn1cncn1)c1ccc(Cl)cc1 (stereo not drawn) [Compound XIII, myclobutanil] | – | 0 | – | 11 | 56
